Data from article PMC13055374, “Engineered antimicrobial-derived peptides to manipulate mixed microbial systems” (Microbiology Spectrum, 2026).
No end group written: not given here. *: point of attachment. FITC = O=C1OC2(c3ccc(O)cc3Oc3cc(O)ccc32)c2ccc(NC(=S)*)cc21

Tests used:
L. seeligeri [1] = assay type: cell-based, Listeria seeligeri; conditions: for antimicrobial activity of conjugated peptides: growth inhibition, Fig. S7 and S9
Experimental: To determine the potency of the purified pediocin PA-1, we generated kill curves against a range of target bacteria (Fig. 1C). The concentration range tested was 3 pM to 3 μM following 10-fold serial dilutions. […] This is in approximate agreement with the published potency of pediocin PA-1 ([46]). Though the molecular mass of pediocin PA-1 is expected to be 4.5 kDa, we observed the partially purified peptide to migrate with an apparent mass of ~12.5 kDa (Fig. 1B). However, subsequent analysis by LC-MS yielded peaks of multiple m/z with the predominant peak at the expected molecular size of 4.6 kDa (Fig. S4). The purified pediocin PA-1, separated on denaturing but non-reducing SDS-PAGE (since this bacteriocin contains two crucial disulfide bonds), was subjected to agar-overlay assay using L. seeligeri as the indicator organism (Fig. S5).
The antimicrobial spectrum of pediocin PA-1 was assayed using a kill curve. Cultures grown overnight were resuspended in fresh medium at an OD600 of 0.05. EC50 was determined by incubating cells with varying concentrations of pediocin in a 96-well plate, and growth was measured at 600 nm after 24 h.
Figure S7. Growth inhibition of L. seeligeri by modified and unmodified pediocin PA-1.

L. coryniformis = assay: Cell-binding assay by flow cytometry; parameters: species or system Lactobacillus coryniformis
Experimental: (§1) The binding affinity and avidity of pediocin to various gram-positive and gram-negative bacteria were studied using flow cytometry. Late log-phase cells were washed in the sodium phosphate buffer (5 mM, pH 6.0) and resuspended at an OD600 of 10^–3 in sodium-acetate buffer (25 mM, pH 4.0), sodium phosphate buffer (5 mM, pH 6.0), or sodium phosphate buffer (5 mM, pH 7.4) containing 1% bovine serum albumin (BSA) and 100 mM NaCl. Cells were incubated with varying concentrations of the conjugated peptide at 4°C for 30 min. The unbound peptide was removed by centrifugation, and the pellet was resuspended in its respective binding buffer containing 1% BSA. Flow cytometry was performed on an Attune NxT flow cytometer (Life Technologies/ThermoFisher Scientific, Carlsbad, CA). Data (≥10^4 events were recorded) were recorded using a […] (488 nm) at a voltage of 360 V, and gating was performed on an SSC-A versus SSC-H plot to reduce false events.

Bacillus subtilis = assay: Cell-binding assay by flow cytometry; conditions: pH 6.0, at the highest concentration (30 μM) tested
Experimental: as §1

L. seeligeri [2] = assay: Cell-binding assay by flow cytometry; parameters: species or system Listeria seeligeri; conditions: for pH dependence of binding: pH 4.0, 6.0 and 7.4, Fig. S10
Experimental: as §1

[3] = system: L. seeligeri in a synthetic community; assay: Binding assay in the mixed community: FACS depletion of FITC-labeled cells, 16S sequencing of the fluorescence-negative population; assay type: cell-based, Listeria seeligeri; conditions: before versus after sorting; pH 6.0, 4°C, 30 min; Fig. 4B
Excerpt: We posited that the pediocin PA-1 characterized here could be a potential tool to modulate the abundance of specific species in an intact microbial community. To this end, we pursued two approaches: (i) using synthetic pediocin PA-1 to deplete specific species by killing and (ii) using FITC-conjugated pediocin PA-1 to deplete specific species by cell sorting. To deplete L. seeligeri by killing, we created a synthetic community of Lacticaseibacillus casei, L. plantarum, L. cremoris, E. faecium, and L. seeligeri and grew it for 2 h. We then split the culture into three parts to which we added 1 μM, 10 μM, or 0 (control) unmodified pediocin PA-1 (Lifetein), respectively. […] Next, we assessed the ability of FITC-conjugated pediocin (Ped-FITC) and its 15-mer version to deplete the target species through cell sorting. Again, we created a synthetic community containing L. seeligeri in abundance and assessed the proportion before and after fluorescence-activated cell sorting (FACS) of FITC-labeled cells. We attempted to sequence the fluorescence-positive population but were unsuccessful due to poor DNA yield. However, the genomic DNA isolated from the fluorescence-negative population indicated depletion of more than 50% in the proportion of L. seeligeri from the synthetic community (Fig. 4B). […]

Enterococcus faecium = assay: Cell-binding assay by flow cytometry; conditions: pH 6.0, Fig. 3C
Experimental: as §1

L. cremoris = assay: Cell-binding assay by flow cytometry; parameters: species or system Lactococcus cremoris; conditions: pH 6.0, flow cytometry, 4°C, 30 min; read-out: apparent KD
Experimental: as §1

L. plantarum = assay: Cell-binding assay by flow cytometry; parameters: species or system Lactiplantibacillus plantarum; conditions: pH 6.0, Fig. 3C
Experimental: as §1

L. seeligeri [4] = assay: Inhibition of the activity of full-length unmodified synthetic pediocin by truncated FITC peptides (growth inhibition curve); assay type: cell-based, Listeria seeligeri; conditions: Fig. S9
Excerpt: Despite similar primary structures, the pediocin-like bacteriocins differ in their target cell specificity (i.e., they differ in their antimicrobial spectra) ([49]). By determining the target cell specificity of hybrid bacteriocins containing N- and C-terminal regions from different pediocin-like bacteriocins, it has been shown that the C-termini of these bacteriocins determine target cell specificity ([49], [50]). […] Taking a cue from these studies, we proceeded to investigate whether fragments of pediocin PA-1 could serve as tags to specifically label pediocin-sensitive species without killing them. These could serve as tools to isolate target microorganisms from mixed samples. To this end, we synthesized fluorescein isothiocyanate (FITC)-conjugated versions of pediocin PA-1, a 15-mer (K20–A34) and an extended 30-mer fragment (S15–K43; Fig. S8). We first tested the bioactivity profile of FITC-conjugated pediocin and its fragments. […] Though the inactivity of 15-mer and 30-mer is expected, the loss of activity of pediocin-FITC conjugate could indicate the steric hindrance due to the fluorophore at the N-terminal, which is known to be critical for cell attachment ([53]). To test if this is due to the synthesis of the FITC-conjugate, we conjugated biotin, 7-nitrobenz-2-oxa-1,3-diazole (NBD), and Atto488 to the synthetic pediocin using EDC–NHS coupling (Fig. S6). […]

Pediocin-FITC: synthesized fluorescein isothiocyanate (FITC)-conjugated full-length pediocin PA-1 ({FITC}-KYYGNGVTCGKHSCSVDWGKATTCIINNGAMAWATGGHQGNHKC; ends and bridges not checked; also: two disulfide bonds, pairing not given here; UniProt P29430 19-62, looked up)
antimicrobial activity of conjugated peptides (L. seeligeri [1]): completely abolished | binding under acidic conditions (L. coryniformis; Fig. S10): surprisingly poor binding | binding (Bacillus subtilis): modest binding | pH dependence of binding (L. seeligeri [2]): strong binding to L. seeligeri at all the tested pHs | Kd (L. seeligeri [2]; pH 6.0, flow cytometry, 4°C, 30 min, read-out: apparent KD): 0.082 ± 0.011 µM | depletion in the proportion of L. seeligeri, fluorescence-negative population after FACS [3]: more than 50%

15-mer-FITC: FITC-conjugated 15-mer fragment (K20–A34) of pediocin PA-1 (KATTCIINNGAMAWA; also: FITC-conjugated (site not given here); UniProt P29430 38-52, looked up, fragment)
antimicrobial activity of conjugated peptides (L. seeligeri [1]): completely abolished | binding (Enterococcus faecium): modest binding | Kd (L. cremoris): 38 ± 4.7 µM | pH dependence of binding (L. seeligeri [2]): higher MFI at higher pHs | binding (L. plantarum): modest binding | ability to inhibit the activity of the full-length unmodified synthetic pediocin (L. seeligeri [4]): unable to do so | depletion in the proportion of L. seeligeri, fluorescence-negative population after FACS [3]: more than 50%

30-mer-FITC: FITC-conjugated extended 30-mer fragment (S15–K43) of pediocin PA-1 (SVDWGKATTCIINNGAMAWATGGHQGNHK; also: FITC-conjugated (site not given here); UniProt P29430 33-61, looked up, fragment)
antimicrobial activity of conjugated peptides (L. seeligeri [1]): completely abolished | pH dependence of binding (L. seeligeri [2]): higher MFI at higher pHs | binding (L. seeligeri [2]; pH 6.0, Fig. 3): did not show appreciable binding | ability to inhibit the activity of the full-length unmodified synthetic pediocin (L. seeligeri [4]): unable to do so

Ped-488: purified biosynthetic pediocin conjugated to Atto488 using EDC–NHS chemistry (KYYGNGVTCGKHSCSVDWGKATTCIINNGAMAWATGGHQGNHKC; ends and bridges not checked; also: Atto488 conjugated by EDC–NHS chemistry (site not given here); UniProt P29430 19-62, looked up)
increase of EC50 relative to the unmodified peptide (L. seeligeri [1]; kill curve, Fig. S7): > 100 fold | maximum fluorescence (L. coryniformis; flow cytometry): 6,300 MFI
